Data set [1] relates to P. berghei hepatic stages. The data set can be described thus: Hepatic stage bioluminescence assay, Huh-7 cells infected with luciferase-expressing sporozoites. In kind it is cell-based, Plasmodium berghei. Particulars: Plasmodium berghei; Huh-7 cells, 48 h after sporozoite addition; read-out: IC50 (μM) Pb liver stages. How it is done: (§1) Huh-7 cells were cultured in RPMI 1640 medium (Sigma) supplemented with 10% v/v fetal bovine serum (FBS), 1% v/v penicillin/streptomycin, 1% v/v glutamine, 1% v/v nonessential amino acids, and 10 mM HEPES, pH 7. For compound dilution, a medium containing 1:1000 gentamicin (G) and 1:300 fungizone (F) was used. Cells were seeded at 1 × 10^4 cells/well in 96-well plates and incubated at 37 °C with 5% CO2. After 24 h, compounds were diluted in RPMI+F+G, and after removal of the culture medium, added to the cells in triplicate. DMSO and atovaquone were used as negative and positive controls, respectively. Following incubation for 1 h at 37 °C, 5% CO2, the cells were infected with luciferase-expressing P. berghei sporozoites (4,000 parasites per well) freshly extracted from the salivary glands of infected mosquitoes reared at the GIMM insectarium. The viability of Huh-7 cells exposed to the compounds was assessed 46 h later by the AlamarBlue assay (Invitrogen, UK) measurement, and parasite burden was measured 48 h after sporozoite addition using a bioluminescence assay (Biotium). IC50 values were calculated using GraphPad Prism through nonlinear regression analysis of normalized dose–response curves.

The subject of data set [2] is Huh-7 cells. The data set can be described thus: Alamar Blue cell confluency (cytotoxicity) in Huh-7 cells. In kind it is cell-based. How it is done: as §1, with “For” for “Huh-7 cells were cultured in RPMI 1640 medium (Sigma) supplemented with 10% v/v fetal bovine serum (FBS), 1% v/v penicillin/streptomycin, 1% v/v glutamine, 1% v/v nonessential amino acids, and 10 mM HEPES, pH 7. For”, “DMSO and atovaquone were used as negative and positive controls, respectively.” left out
On the first day of the assay, the compounds were diluted at 10 and 1 μM in cRPMI medium supplemented with fungizone. and gentamicin. The culture medium of Huh-7 cells was removed and replaced with compound dilutions in triplicate. As a control, a DMSO dilution mimicking the highest compound concentration used was included. The cells were incubated for 1 h at 37 °C in a 5% CO2 atmosphere.
On the second day of the assay, compound toxicity was assessed by measuring cell confluency using the Alamar Blue/CellTiter Blue reagent. First, reagent aliquots stored at −20 °C were thawed and diluted at a 1:20 ratio in cRPMI. The culture medium was removed and replaced with 80 μL of the solution per well, followed by incubation at 37 °C and 5% CO2 for 1 h and 30 min. Fluorescence was measured using a plate reader with the Tecan i-Control software.

Data set [3] has as its system P. vivax oocysts and sporozoites in Anopheles darlingi. As to the kind of experiment: Direct membrane feeding assay (DMFA), P. vivax gametocytes, A. darlingi mosquitoes. In kind it is in vivo, Plasmodium vivax. The settings on record: for reduction of the density of sporozoites per mosquito: 14 days after feeding; for reduction in the oocyst density per mosquito midgut: day 7. How it is done:
Participants were recruited from patients diagnosed with P. vivax malaria via Giemsa-stained blood smears at CEPEM in Porto Velho, Rondônia, Brazil (#28176720.9.0000.0011). Criteria included: P. vivax parasitemia >2000 parasites/μL, age 18–85, no severe malaria, no concomitant diseases, nonpregnant, and consent to study procedures. Approximately 10 mL of venous blood was collected into heparin-coated vials, maintained at 37 °C, and transported to PIVEM for DMFA. Malaria treatment followed Brazilian Ministry of Health guidelines and was unaffected by study participation.
Anopheles darlingi mosquitoes are maintained in the PIVEM insectary at Fiocruz Rondônia since 2018. Mosquitoes were raised at a temperature of 26 °C ± 1 °C and a relative humidity of 70 ± 10%, being fed a 15% honey solution.
Before the DMFA, female mosquitoes were starved of sucrose overnight. Six P. vivax isolates were used, and 40–100 mosquitoes per group were fed P. vivax-infected blood for 30 min using a Hemotek membrane feeder at 37 °C. Unfed mosquitoes were removed, and engorged ones were maintained for sporogony, receiving a 15% honey solution refreshed every 2 days. Midguts were dissected on day 7 and salivary glands on day 14 postblood feeding, to assess midgut oocyst load and salivary gland sporozoite load, respectively.
Mosquitoes were anesthetized on ice, immersed in 70% ethanol, and dissected in PBS. Midguts were stained with 0.2% mercurochrome and examined microscopically for oocysts. Salivary glands were pooled (5 mosquitoes per sample), and homogenized in 15 μL RPMI, and sporozoites were counted using a Neubauer chamber.

The test system of data set [4] is late-stage gametocytes (IV and V) of P. falciparum NF54. As to the kind of experiment: Late-stage gametocyte bioluminescence assay, luciferase-expressing NF54. In kind it is cell-based, Plasmodium falciparum. The settings on record: for Pf gametocytes inhibition: 1 μM; for inhibition at 20 µM: Plasmodium falciparum, NF54, 48 h, read-out: Pf gametocytes Inhibition (%). On the procedure:
For the in vitro culture of sexual stages of P. falciparum NF54 Luminescent strain, the Tripathi protocol was followed.
Parasite asexual stages were synchronized, and ring-stage parasites were incubated with a parasite-conditioned medium to induce stress and trigger gametocyte induction. After sexually committed parasites invaded new erythrocytes, N-acetylglucosamine was added to prevent further invasion and clear residual asexual parasites.
When a predominance of late stage (IV and V) gametocytes was identified and counted together, , the MACS magnetic system was used for gametocyte enrichment, as previously described. ,
The column content was eluted with RPMI medium into a 15 mL Falcon tube until translucent medium appeared, yielding ∼ 10 mL of eluate. The sample was centrifuged at 1500 rpm for 5 min at 37 °C, the supernatant discarded, and the pellet washed with preheated RPMI medium containing albumax. A 1 μL pellet sample was used to prepare a Giemsa-stained smear for gametocytaemia determination by counting 2000 cells. The gametocytemia for each assay were 71%, 64% and 31%. The remaining pellet was adjusted to 1 mL with RPMI medium containing 10% human serum at 37 °C. Total cell counts were performed using a Neubauer chamber with a 10X diluted sample.
Each well contained 200,000 gametocytes in 150 μL without erythrocytes. After 48 h of incubation, a luciferase kit (Promega) was used to reveal the assay. Eighty microliters of supernatant were discarded, and the pellet was homogenized in the remaining content. Forty microliters of the sample were transferred to a clear 96-well plate containing lysis solution (1X), gently mixed, and moved to a white-bottomed 96-well plate. Luciferase (40 μL) was added, and luminescence was measured using a microplate reader with a 10-s integration time.

[5] abbreviates: 20 μM, 48 h, late-stage (IV and V) gametocytes.

For orientation: IC50 means the concentration at which inhibition is half-maximal. Usually inhibition stands for the change of the read-out against control, counted positive when it falls. In the case of `CCCCCCCCCCCc1cc(=O)c2ccccc2[nH]1` [compound 1, 2-Undecilquinolin-4(1H)-one], in data set [1], the IC50 was determined as 0.25 ± 0.01 µM. Besides, the Confluency % in data set [2] (1 μM) is 97 ± 6%. The Confluency % in data set [2] (10 μM) came to 79 ± 2%. In data set [3] (2 μM), the “reduction of infection prevalence” value is 31%, the “reduction of the density of sporozoites per mosquito” value was determined as 39% and the “reduction in the oocyst density per mosquito midgut” value (from here on “reduction … per mosquito midgut”) came out at 74%. In data set [3] (10 μM), the “reduction of infection prevalence” value was 71% and the “reduction … per mosquito midgut” value came out at 95%. For the same molecule, the Pf gametocytes inhibition entry in data set [4] is recorded as “no activity”. For the same molecule, the inhibition at 20 µM in data set [4] (setting [5]) was found to be 44 ± 4%.
Consider `CCCCCCOc1ccc(-c2cc(=O)c3ccccc3[nH]2)cc1` [compound 6, 2-(4-(Hexyloxy)-phenyl)-quinolin-4(1H)-one], for which the IC50 in data set [1] was determined as 0.38 ± 0.04 µM. In addition, the Confluency % in data set [2] (1 μM) came out at 105 ± 3%; in data set [2] (10 μM) it was 102 ± 11%. Besides, the entries for the “reduction of the density of sporozoites per mosquito” value in data set [3] (2 μM) and in data set [3] (10 μM) were 31% and 10%, respectively. The “reduction … per mosquito midgut” value in data set [3] (2 μM) came out at 29%; in data set [3] (10 μM), 53%. Further, the Pf gametocytes inhibition entry in data set [4] is “no activity”. Moreover, the “Pf gametocytes Inhibition (%)” value in data set [4] (setting [5]) is on record as 68 ± 25%. In addition, in data set [4] (setting [5]), the inhibition at 20 µM turned out to be 64%.
